These results are taken from ChEMBL document CHEMBL1157539, “Thousands of chemical starting points for antimalarial lead identification” (Nature, 2010).

The subject of this test is Plasmodium falciparum. Description: GSK_TCMDC: Inhibition of Plasmodium falciparum 3D7 in whole erythrocytes, using parasite LDH activity as an index of growth. The following applies: Plasmodium falciparum, 3D7. Format: functional, organism-based.
`O=C([C@H]1CCCCN1c1ccc([N+](=O)[O-])c2ccccc12)N1CCN(c2ncccn2)CC1` came in with an XC50 of 199 nM.

In the case of `Cc1ccc(Cn2ccc3c4c(N)nc(N)nc4ccc32)cc1`, the XC50 was found to be 3.2 nM. The same measure for `Cc1ccc(CC(C)NCC(O)c2cccc([N+](=O)[O-])c2)cc1` (configuration not stated): 761 nM; for `CN1CCCN(Cc2cccc(-c3ccc(NC(=O)c4cccc(C#N)c4)cc3)c2)CC1`: 723 nM; for `O=C(Nc1ccc(-c2cccc(CN3CCC(O)CC3)c2)cc1)c1cccc(Cl)c1`: 826 nM. As for `CC(Cc1ccc(CNC(=O)NCc2ccc(CC(C)NCCc3cccc(Cl)c3)cc2)cc1)NCCc1cccc(Cl)c1` (configuration not stated), the figure is 685 nM; as for `Cc1ccc(C(=O)Nc2ccc(C)c(OC3CCN(Cc4ccco4)C3)c2)cc1` (configuration not stated), 966 nM. On to `FC(F)(F)c1ccc2[nH]c(-c3ccc(-c4cccc(CNCc5ccccc5)c4)cc3)nc2c1`, for which the XC50 was 222 nM. Take `Cn1c(N)c(C(=O)CSc2nnc(-c3cccs3)n2Cc2ccccc2)c(=O)n(C)c1=O`: the XC50 is 792 nM. In the case of `CCOC(=O)c1c(CSc2ccccc2)oc2cc(CN(C)C)c(O)c(Cl)c12`, the XC50 worked out at 657 nM. The same measure for `Cc1ccc(C2(CN3CCC(NC(=O)c4cc[nH]n4)CC3)CCCCC2)cc1`: 225 nM; for `NC(=O)COc1cccc2c1CCN(CCN1CCC(NC(=O)c3ccc(-c4ccc(Cl)cc4)cc3)CC1)C2`: 841 nM; for `Fc1cccc(COc2ccc(Nc3ncnc4sc(C#CCNC5CCCC5)cc34)cc2Cl)c1`: 782 nM.

The compound `CC[C@H]1CN2CC[C@H]1C[C@H]2[C@H](O)c1cc(-c2ccc(C)cc2)nc2ccc(OC)cc12` registered an XC50 of 109 nM. As for `O=C(Nc1ccc(Cl)cc1)c1cc(Cl)cc2nc(C(F)(F)F)[nH]c12`, the XC50 was determined as 131 nM. The compound `CN1CC[C@@H](Oc2cc(NC(=O)Nc3ccccc3Br)ccc2Cl)C1` returned an XC50 of 1100 nM. The compound `CC(Sc1nnc(-c2cccs2)[nH]1)C(=O)c1c[nH]c2ccccc12` (configuration not stated) came in with an XC50 of 1800 nM. The same measure for `O=C(/C=C/c1ccc(Cl)c(Cl)c1)NC1CCC(CN2CCC(c3c[nH]c4ccncc34)CC2)CC1` (configuration not stated): 398 nM. `O=C1OC2(CN1CC1CCN(Cc3ccc(-n4ccnc4)cc3)C1)c1ccccc1-c1ccccc12` (configuration not stated): the XC50 was determined as 983 nM. For `COc1ccc(CNC(=O)C2Cc3ccccc3CN2Cc2ccc3ccccc3c2)cc1` (configuration not stated), the XC50 stood at 1100 nM. As for `Oc1ccc(Cl)cc1CN1CCC(CCOC(c2ccccc2)c2ccccc2)CC1`, the figure is 649 nM; as for `Cc1cccc2nc(-c3ccc(-c4ccc(NC(=O)Nc5ccc(Cl)c(Cl)c5)cc4)cc3)[nH]c12`, 826 nM; as for `O=C(c1cccc(-c2noc(C(F)(F)F)n2)c1)N1CCN(C(=O)c2ccc3cc[nH]c3c2)CC1`, 107 nM. In the case of `Cc1cccc2nc(-c3cccc(-c4cccc(CNCc5ccccc5)c4)c3)[nH]c12`, the XC50 was determined as 393 nM. With `CC(Cc1ccc(NC(=O)c2ccc(CC(C)NCc3ccc(Cl)cc3)cc2)cc1)NCCc1cccc(Cl)c1` (configuration not stated), the XC50 stood at 450 nM.

`CCCNCc1ccc(-c2ccc(CN(Cc3cnc(C)cn3)C(=O)/C=C/c3ccccc3C)cc2)nc1` had an XC50 of 919 nM.

`CCC(=O)N(c1ccccc1)C1CCN(CCCC(NC(=O)c2cc(C(F)(F)F)cc(C(F)(F)F)c2)c2ccc(Cl)c(Cl)c2)CC1` (configuration not stated) returned an XC50 of 803 nM.

`CCN(CC)S(=O)(=O)c1ccc(C(C)NC(=O)c2ccccc2COc2ccccc2)cc1` (configuration not stated): the XC50 amounted to 330 nM. `O=c1cc(NCCNCc2cccc(-c3ccccc3)c2)[nH]c2ccccc12` yielded an XC50 of 1030 nM. The same measure for `CCn1c(-c2cc(C)on2)nc2cnc(Oc3ccc(C(=O)N4CC(=O)N(C)C4C(C)(C)C)cc3)cc21` (configuration not stated): 1820 nM; for `CON=Cc1sc(CNCCCN=c2cc(O)c3ccccc3[nH]2)c(C)c1Br`: 962 nM.

Regarding `Cc1c(-c2ccc3c(c2)C(NCCCN2CCCCC2)CC3)cnc(N)c1C` (configuration not stated), the XC50 turned out to be 1110 nM.

Compound `N#Cc1ccc(CNCCCCCCNCc2ccc(C#N)c3ccccc23)c2ccccc12` registered an XC50 of 610 nM. The same measure for `COc1cc2ncnc(Nc3ccc4nc(-c5ccccc5)[nH]c4c3)c2cc1OC`: 443 nM; for `COc1cc2nccc(Nc3cc(C)cc(O)c3)c2cc1OC`: 905 nM; for `COc1cccc(CC(C)NCC(O)c2cccc(Cl)c2)c1` (configuration not stated): 1270 nM.

Compound `CN1CCC(NC(=O)c2cc(Oc3ccc4c(c3)CCN4C(=O)Nc3cccc(C(F)(F)F)c3)ccn2)CC1` returned an XC50 of 930 nM.

In the case of `CN1CCN(CCCN(Cc2csc(-c3ccc(CNCc4ccccc4)cc3)n2)S(=O)(=O)c2ccccc2Cl)CC1`, the XC50 is 876 nM.

The compound `OCC1CCN(Cc2ccc(-c3ccc(-c4nc5ccccc5[nH]4)cc3)cc2)CC1` registered an XC50 of 898 nM.

In the case of `CC(C)=CCN1CCC(C(=O)Nc2ccc(-c3nc4ccccc4[nH]3)cc2)CC1`, the XC50 is 908 nM.

Take `c1ccc(Oc2ccc(Nc3ccnc4cc(-c5ccc(CN6CCOCC6)o5)ccc34)cc2)nc1`: the XC50 came out at 906 nM. The same measure for `Cc1sc(CNCCCNc2cc(=O)c3ccccc3[nH]2)c(C(F)(F)F)c1C`: 734 nM; for `CC(C)C[C@@H](/C=N/N1CC(=O)NC1=O)NC(=O)[C@H](CC(C)C)NC(=O)c1ccc(OCCN2CCOCC2)cc1`: 270 nM. The same measure for `Cc1cc(NC(=O)NCCN2CCC(NC(=O)c3cccc(Br)c3)C2)c2ccccc2n1` (configuration not stated): 553 nM.

`CC1(C)NC(=N)N=C(NOCC=Cc2ccccc2)N1` had an XC50 of 227 nM. As for `ON=C(c1nc2ccccc2[nH]1)c1nc2ccccc2[nH]1`, the figure is 1090 nM. In turn, `Cc1nc(C)c(-c2ccc(Oc3cc(Cl)cc(Cl)c3)cc2)c(O)c1Br` yielded an XC50 of 242 nM.

The compound `O=C(CNC(=O)c1ccc(O)cc1)Nc1cccc(-c2cccc(-c3nc4cc(C(F)(F)F)ccc4[nH]3)c2)c1` came in with an XC50 of 1040 nM.

Take `CN1CCN(CCCN(Cc2cccc(-c3cccc(CNCCc4ccccc4)c3)c2)C(=O)Nc2ccccc2)CC1`: the XC50 was 579 nM. Regarding `CC(=O)c1cccc2[nH]c(C(=O)NC3CCC(CCN4CCc5ccc(C#N)cc5C4)CC3)cc12` (configuration not stated), the XC50 came to 842 nM. Take `CC1N=C(N)N=C(N)N1OCc1ccccc1` (configuration not stated): the XC50 was determined as 32.9 nM. The same measure for `CCN(CC)c1ccc(C(c2ccc(N(CC)CC)cc2)c2ccc([N+](=O)[O-])cc2)cc1`: 946 nM; for `CCCCCn1c(Sc2ccc(C#N)c([N+](=O)[O-])c2)nnc1-c1cccc(Cl)c1`: 768 nM.

`Cc1ccc(NC(=O)c2ccc(N3CCC(c4ccccc4C)CC3)nc2)cc1` registered an XC50 of 1400 nM.

With `COCCSc1nc2scc(C)c2c(=O)n1Cc1cccc(OC)c1`, the XC50 stood at 912 nM. `Cn1nc(C(F)(F)F)cc1-c1ccc(C(=O)NC2CCC(CN3CCC(c4c[nH]c5ccccc45)CC3)CC2)s1` (configuration not stated) gave an XC50 of 565 nM. The same measure for `Cc1oc(-c2ccccc2)nc1CCOc1ccc(C[C@H](Nc2ccccc2C(=O)c2ccccc2)C(=O)NCc2ccccn2)cc1`: 884 nM; for `COc1ccc(CNC2CCN(c3ccc(NC(=O)c4cccc(Cl)c4)cc3)CC2)cc1OC`: 1020 nM; for `O=C(Nc1cccc(-c2nn3ccccc3c2-c2ccnc(Nc3cccc(F)c3)n2)c1)c1c(F)ccc(F)c1Cl`: 1140 nM.

On to `O=[N+]([O-])c1cccc(C(Nc2ccccn2)c2ccc3cccnc3c2O)c1` (configuration not stated), for which the XC50 was determined as 1330 nM. The compound `CC1(C)N=C(N)N=C(N)N1OCc1ccc2ccccc2c1` came in with an XC50 of 3.2 nM.

Regarding `CCc1ccc(C2CCN(CCCCNC(=O)c3ccc(-c4ccc(Cl)cc4)cc3)CC2)c(O)c1`, the XC50 worked out at 891 nM. `COc1ccc(C=NNc2nc3ccccc3[nH]2)cc1O` returned an XC50 of 915 nM. Compound `CCC(C)NCCC(c1ccccc1)c1ccccc1O` (configuration not stated) had an XC50 of 788 nM.

Compound `CN1CCN(CCCN(Cc2ccc(-c3cccc(CNCc4ccc5c(c4)OCO5)c3)cc2)C(=O)NC2CCCCC2)CC1` yielded an XC50 of 988 nM. The same measure for `C=CCOc1cccc2c1CCN(CCN1CCC(NC(=O)c3ccc(-c4ccc(Cl)cc4)cc3)CC1)C2`: 673 nM; for `Cc1cc(Nc2ccncc2)n2nc(C)c(-c3ccc(Cl)cc3)c2n1`: 157 nM; for `COc1ccc(-c2ccc(NC(=O)c3cccc(C#N)c3)cc2)cc1CN1CCCC(C(N)=O)C1` (configuration not stated): 863 nM. Compound `Nc1nc(N)c2cc3ccc(OCc4ccccc4)cc3nc2n1` returned an XC50 of 320 nM. `Cc1nccc2c(NC(=O)N[C@@H]3CCN(c4ncc(C(F)(F)F)cc4Br)C3)cccc12` gave an XC50 of 364 nM. In turn, `CC(C)/C(=C(/F)CN1C(=O)C(NC(=O)c2cc3ccccc3[nH]2)C(=O)N(c2ccccc2)c2ccccc21)c1ccccc1` (configuration not stated) yielded an XC50 of 697 nM. As to `Cc1cc(NC2CCCC2)nc(Nc2ccccc2)n1`, the XC50 worked out at 985 nM. On to `Cc1cccc2nc(-c3ccc(-c4cccc(CN5CC(C)OC(C)C5)c4)s3)[nH]c12` (configuration not stated), for which the XC50 was 757 nM. `Cc1c(Cc2ccccc2Cl)cnc2nc(N)nc(N)c12`: the XC50 stood at 7.42 nM. Compound `O=c1c2c([nH]c3cc(Cl)ccc13)CCCC2` showed an XC50 of 810 nM. The same measure for `O=C(Nc1ccc(-c2nc3ccccc3[nH]2)cc1)C1CCN(Cc2ccccc2)CC1`: 1760 nM.

Regarding `COc1ccc2nccc(N3CCC(NCCNCc4ccc5c(n4)NC(=O)CS5)C3)c2n1` (configuration not stated), the XC50 came to 694 nM. The compound `Clc1ccc(Nc2nc(NCc3ccccc3)nc(N/N=C/c3ccccn3)n2)cc1` showed an XC50 of 776 nM.

Consider `O=C(NCc1cccnc1)C(c1cc2ccccc2o1)N1CCN(C(c2ccccc2)c2ccccc2)CC1` (configuration not stated), for which the XC50 was 713 nM. `O=C(CNC1CCCCC1)c1ccc(O)c(O)c1` returned an XC50 of 660 nM.

The compound `c1ccc2[nH]c(-c3ccc(-c4ccc(CN5CCCCC5)cc4)cc3)nc2c1` gave an XC50 of 750 nM. As for `COc1cc(NC(=O)c2ccc3c(=O)n(Cc4ccccc4)c(=S)[nH]c3c2)cc(OC)c1OC`, the XC50 turned out to be 743 nM.

`Cc1cc(C)c2oc(-c3cccc(NC(=O)c4ccc([N+](=O)[O-])o4)c3C)nc2c1` yielded an XC50 of 1150 nM. As for `Cc1cc(NC(=O)Nc2ccc3nccc(N4CCN(C)CC4)c3c2)ccc1Br`, the figure is 92.7 nM; as for `Cc1ccc(S(=O)(=O)NC2CCN(c3ccnc4cc(Cl)ccc34)C2)cc1` (configuration not stated), 621 nM; as for `NC(=O)c1ccc(C(=O)Nc2cccc(-c3cccc(-c4nc5cc(C(F)(F)F)ccc5[nH]4)c3)c2)cc1`, 229 nM.

Take `C=CCc1cccc(OC)c1OCCCON1C(=N)N=C(N)NC1(C)C`: the XC50 is 3.2 nM.
